The NIST ThermoML archive (doi:10.1016/j.jct.2011.08.016)

Experiment: xn = mol fraction of the nth substance listed
Conditions: Liquid, Vibrating tube method

CCCCCCCCCC [decane] + CCCCCCC
mass density [kg/m3]
Conditions | x2 = 0.0531 | x2 = 0.2594 | x2 = 0.5219 | x2 = 0.777 | x2 = 0.952
343.09 K, 1000 kPa | 690.42 | – | 670.9 | 656.56 | –
343.09 K, 2000 kPa | 691.49 | – | 672.01 | 657.76 | –
343.09 K, 3000 kPa | 692.55 | – | 673.08 | 658.95 | –
343.09 K, 4000 kPa | 693.59 | – | 674.15 | 660.13 | –
343.09 K, 5000 kPa | 694.62 | – | 675.24 | 661.28 | –
343.09 K, 6000 kPa | 695.63 | – | 676.3 | 662.42 | –
343.09 K, 7000 kPa | 696.62 | – | 677.39 | 663.56 | –
343.09 K, 8000 kPa | 697.6 | – | 678.46 | 664.71 | –
343.09 K, 9000 kPa | 698.57 | – | 679.53 | 665.84 | –
343.09 K, 10000 kPa | 699.52 | – | 680.57 | 666.95 | –
343.09 K, 11000 kPa | 700.46 | – | 681.55 | 668.04 | –
343.09 K, 12000 kPa | 701.38 | – | 682.56 | 669.13 | –
343.09 K, 13000 kPa | 702.3 | – | 683.57 | 670.2 | –
343.09 K, 14000 kPa | 703.21 | – | 684.56 | 671.24 | –
343.09 K, 15000 kPa | 704.09 | – | 685.54 | 672.27 | –
343.09 K, 16000 kPa | 704.98 | – | 686.5 | 673.29 | –
343.09 K, 17000 kPa | 705.84 | – | 687.45 | 674.28 | –
343.09 K, 18000 kPa | 706.7 | – | 688.39 | 675.26 | –
343.09 K, 19000 kPa | 707.54 | – | 689.28 | 676.22 | –
343.09 K, 20000 kPa | 708.37 | – | 690.16 | 677.14 | –
343.09 K, 21000 kPa | 709.2 | – | 691.02 | 678.06 | –
343.09 K, 22000 kPa | 710 | – | 691.87 | 678.95 | –
343.09 K, 23000 kPa | 710.8 | – | 692.69 | 679.82 | –
343.09 K, 24000 kPa | 711.58 | – | 693.49 | 680.67 | –
343.09 K, 25000 kPa | 712.36 | – | 694.29 | 681.49 | –
343.11 K, 1000 kPa | – | 682.79 | – | – | 645.16
343.11 K, 2000 kPa | – | 683.83 | – | – | 646.47
343.11 K, 3000 kPa | – | 684.89 | – | – | 647.73
343.11 K, 4000 kPa | – | 685.87 | – | – | 649
343.11 K, 5000 kPa | – | 686.9 | – | – | 650.27
343.11 K, 6000 kPa | – | 687.93 | – | – | 651.49
343.11 K, 7000 kPa | – | 688.92 | – | – | 652.71
343.11 K, 8000 kPa | – | 689.92 | – | – | 653.91
343.11 K, 9000 kPa | – | 690.94 | – | – | 655.08
